Measurements: patent US20020156301A1, “Triphenylmethane derivatives and use thereof” (Sumitomo Chemical Co., Ltd., priority 1997, published 2002)
Marks after values point to notes of the source that are not given here.

Assays:
[1] = system: α- and β-isoforms of human estrogen receptor; assay: Antiestrogenic activity: ERE-luciferase reporter in HeLa cells transfected with hERα or hERβ, with 17β-estradiol; format: cell-based; details: relative luminescence for β-isoform divided by that for α-isoform, 17β-estradiol 100 pM (α), 1 nM (β)
From the text: cDNA fragments for α- and β-isoforms of human estrogen receptor were cloned from a human liver cDNA library (Toyobo Co, Ltd.) by RT-PCR using oligonucleotides having the following base sequences as primers. For cloning the a-isoform, oligonucleotides 5′-[…]-3′ and 5′-[…]-3′ were used, while oligonucleotides 5′-[…]-3′ and 5′-[…]-3′ were used for cloning the β-isoform. The CDNA fragments for the α- and β-isoforms obtained by the RT-PCR procedures were blunt-ended, and each inserted into a vector for expression pRc/RSV (Invitrogen) at its blunt-ended Hind III cleavage site to obtain expression plasmids pRc-RSV-hERα and pRc-RSV-hERβ. In addition, an oligonucleotide 5′-[…]-3′ comprising an estrogen response element was inserted into a vector pGV-P (Toyo Ink Mfg. Co., Ltd.) at the Sma I cleavage site to obtain a luciferase reporter plasmid pGV-ERE.
Separately, HeLa cells which had been subcultured in Eagle's MEM medium containing 10% (v/v) phenol red-free and active charcoal-treated serum were inoculated in 24-well plates (φ16 mm well) at a density of 40,000 cells/well, cultured for 24 hours at 37° C. in the presence of 5% CO2, and then the medium was exchanged with serum-free Eagle's MEM medium.
The above expression plasmid pRc-RSV-hERα or pRc-RSV-hERβ, and the luciferase reporter plasmid pGV-ERE incorporating the estrogen response element were transfected into the above HeLa cells using the lipofectin method. Specifically, 0.3 μg of the expression plasmid pRc-RSV-hERα or pRc-RSV-hERβ, 0.1 μg of pGV-ERE, and 0.35 μl of Lipofectin mixed together, and added to the above HeLa cells. The HeLa cells were then cultured for 6 hours at 37° C. in the presence of 5% CO2. Next, the medium was exchanged with Eagle's MEM medium containing 10% serum (active charcoal-treated), and the cultivation was continued overnight at 37° C. under 5% CO2. Furthermore, the medium was exchanged with Eagle's MEM medium containing 10% serum (active charcoal-treated) which had been further supplemented with a solution of a test compound in DMSO (or DMSO alone) and 17β-estradiol (final concentration: 100 pM for the α-isoform, and 1 nM for the β-isoform), and the cells were cultured for 48 hours. After removing the medium and washing the cells twice with PBS(−), 50 μl/well of a lysis solution was added, and the cells were lysed at room temperature. An aliquot of this cell lysate was mixed with a luciferase assay substrate solution (Toyo Ink Mfg. Co., Ltd.), and the luminescence was measured using a luminometer. For each of α- and β-isoforms of estrogen receptor, the relative value of luminescence obtained in each experiment in which 17β-estradiol and a solution of one of test compounds in DMSO were added was then calculated, considering the luminescence obtained when 17β-estradiol and DMSO were added as 100. Next, the antiestrogenic activity (β/α) was calculated by dividing the relative value thus obtained for the β-isoform by that for the α-isoform.

[2] = system: Rat osteoblastic cell line UMR 106; assay: Effects on osteoblast: ALP activity and TGFβ amount; format: cell-based; details: two days, corrected for protein; for ALP activity, relative value considering the value for control as 1: UMR 106 cells; for TGFβ, relative value considering the value for control as 1: UMR 106 medium supernatant
Description: Rat osteoblastic cell line UMR 106 was subcultured in Eagle's MEM medium containing 10% fetal bovine serum (active charcoal-treated), inoculated in 6-well plates (φ 36 mm well) at a density of 20,000 cells/well, and cultured overnight in 2 ml/well of the same serum-containing Eagle's MEM medium at 37° C. in the presence of 5% CO2. On the following day, the medium was aspirated, and the wells were washed by adding 1 ml/well of serum-free Eagle's MEM medium supplemented with Supplement A (a solution of insulin, transferrin, and selenium; Gibco BRL). After aspirating the washings, 2 ml/well of serum-free Eagle's MEM medium supplemented with Supplement A was newly added, and the cultivation was further continued at 37° C. Two days after the medium exchange, the medium was aspirated from each well. Into the wells, 2 ml/well of serum-free Eagle's MEM medium containing Supplement A to which a solution of a test compound in DMSO (or DMSO alone) had been added and mixed was then added, and the cultivation was further continued at 37° C. Two days after the addition of compound, the medium was collected, centrifuged (14,000 rpm, 5 minutes), and the supernatant was aliquoted. To each 0.6 ml aliquot, 20 μl of 1N HCl was added, mixed and then they were stored with ice-cooling. On the other hand, the wells from which the medium had been removed were washed twice with PBS (−). After thoroughly removing the residual liquid, 0.5 ml/well of extra pure water was added, and the cells were harvested, and stored at −80° C. The ice-cold medium supernatant described above was neutralized with 1N NaOH, and 100 μl aliquot thereof was sampled, and used in quantifying TGFβ using an ELISA kit for TGFβ (Biochemical Research Institute, Morinaga Milk Industry Co. Ltd.). On the other hand, the frozen cells were thawed by bringing them to room temperature. The cell suspension thus obtained by thawing the frozen cells was then centrifuged (14,000 rpm, 5 minutes), and 50 μl of the supernatant was used in measurement of alkaline phosphatase (ALP) activity. ALP activity was measured according to the method of Lowry [J. Biol. Chem. vol. 207, 19-37 (1954)]. The samples remained without being used for measurements of TGFβ and ALP activity were used in quantification of protein according to the method of Lowry [J. Biol. Chem. vol. 193, 265-275 (1951)].
The relative values for the amount of TGFβ and the ALP activity after correcting for the amounts of protein are shown in Table 2.

ovariectomized rats = assay: Effects on ovariectomized rat: bone mineral density of tibial epiphysis; format: in vivo; details: 17 administrations, average for 5-8 animals, OVX control 79.9
From the text: Six-weeks old female SD rats (Charles River Japan) were subjected to ovariectomy of right and left ovaries, after one-week pre-feeding. Firstly, the hairs around the both flanks of the rats were shaved away. After anesthetizing the rat with diethyl ether, the area around the flanks was disinfected, and incised about 1 cm below the last ribs. The ovaries and uterus were extracted along with fats through the incision, and the ovaries were excised after ligating between ovaries and uterus with suture. The uterus and fats were then returned into the abdomens, and the incision was sutured. For rats receiving mock operations, ovaries were extracted as described above, and then returned into the abdomens as they were without ligature and excision. The rats which received such operations were divided into groups of four animals, and each group was housed in a polypropylene cage, and fed with chow (CRF-1; Charles River Japan) and water ad libitum.
A compound was weighed out into a mortar, and the crystals were finely ground with a pestle. To the ground compound, 1% hydroxypropyl cellulose (HPC, 150-400 cP) was then added in small amounts while rubbing for suspending and mixing the compound to prepare an administration liquid having a given concentration of the compound. Such liquids for administration were newly prepared every week.
The weights of ovariectomized rats described above were measured at an interval of one week, and the doses of the above liquid for administration were determined based on the weights. The same doses were used for one week until the next weight measurement. Administration to rats was started at one week after the ovariectomy, and the above liquids for administration were orally administered 17 times in total to groups of 5-8 animals through a 2 ml volume syringe attached with a metal sonde and once a day at a frequency of 5 times a week. […] The bone mineral density of the tibial epiphysis proximal to the knee was measured by an area scanning method.

Cc1cc(C(c2ccc(OCCN(C)C)cc2)c2cc(C)c(O)cc2C)c(C)cc1O [Compound 1, bis(2,5-dimethyl-4-hydroxyphenyl)[4-(2-dimethylamino-1-ethoxy)phenyl]methane]
Antiestrogenic activity (β/α) ([1]; compound 0.1 μM): 5.2
Antiestrogenic activity (β/α) ([1]; compound 1 μM): 8.6
Antiestrogenic activity (β/α) ([1]; compound 10 μM): 3.0
ALP activity, relative value considering the value for control as 1 ([2]; compound 0.1 μM): 2.0
TGFβ, relative value considering the value for control as 1 ([2]; compound 0.1 μM): 1.4
ALP activity, relative value considering the value for control as 1 ([2]; compound 1 μM): 5.4
TGFβ, relative value considering the value for control as 1 ([2]; compound 1 μM): 1.1
Bone mineral density (ovariectomized rats; 50 mg/kg-weight/day oral): 88.0* mg/cm^2

Cc1cc(C(c2cccc(OCCN(C)C)c2)c2cc(C)c(O)cc2C)c(C)cc1O [Compound 2, bis(2,5-dimethyl-4-hydroxyphenyl)[3-(2-dimethylamino-1-ethoxy)phenyl]methane]
Antiestrogenic activity (β/α) ([1]; compound 0.1 μM): 19
Antiestrogenic activity (β/α) ([1]; compound 1 μM): 5.5
Antiestrogenic activity (β/α) ([1]; compound 10 μM): 2.3
ALP activity, relative value considering the value for control as 1 ([2]; compound 0.1 μM): 1.5
Bone mineral density (ovariectomized rats; 50 mg/kg-weight/day oral): 91.2* mg/cm^2

Cc1cc(C(c2cccc(OCCN(C)C)c2)c2cc(C)c(O)c(C)c2C)c(C)c(C)c1O [Compound 3]
Antiestrogenic activity (β/α) ([1]; compound 0.1 μM): 2.6
Antiestrogenic activity (β/α) ([1]; compound 1 μM): 4.0
Antiestrogenic activity (β/α) ([1]; compound 10 μM): 2.0

Cc1cc(C(c2ccc(OCCN(C)C)cc2)c2cc(C)c(O)c(C)c2)cc(C)c1O [Compound 4]
Antiestrogenic activity (β/α) ([1]; compound 0.1 μM): 1.5
Antiestrogenic activity (β/α) ([1]; compound 1 μM): 14
Antiestrogenic activity (β/α) ([1]; compound 10 μM): 5.0

Cc1cc(C(c2cccc(OCCN(C)C)c2)c2cc(C)c(O)c(C)c2)cc(C)c1O [Compound 5]
Antiestrogenic activity (β/α) ([1]; compound 1 μM): 8.4
Antiestrogenic activity (β/α) ([1]; compound 10 μM): 5.0

C#C[C@]1(O)CC[C@H]2[C@@H]3CCc4cc(O)ccc4[C@H]3CC[C@@]21C [ethinyl estradiol, reference compound]
Bone mineral density (ovariectomized rats; 0.1 mg/kg-weight/day oral): 88.6* mg/cm^2

Hydroxytamoxifen [reference compound]
Antiestrogenic activity (β/α) ([1]; compound 0.1 μM): 1.3
Antiestrogenic activity (β/α) ([1]; compound 1 μM): 1.9
Antiestrogenic activity (β/α) ([1]; compound 10 μM): 1.5
